Literature values in US7208498B2, “Piperidino pyrimidine dipeptidyl peptidase inhibitors for the treatment of diabetes” (Merck & Co., Inc., priority 2002, dated 2007).

Columns and labels:
[1] = test system: cardiac allograft; settings: rats; Transplantation 63, 1495–1500 (1997)
[2] = test system: hematopoiesis; settings: mouse, cyclophosphamide-induced neutropenia; WO 99/56753
[3] = test system: GRF

With `CC(C)N1CCC(c2ccccc2)(c2ccccc2)CC1` [Prodipine, Pro-Pro-diphenyl-phosphonate] as the compound, how does the cardiac allograft survival [1] read?
Its cardiac allograft survival is “double cardiac allograft survival in rats from day 7 to day 14”.

With `CC(C)[C@H](N)C(=O)N1CCC[C@H]1B(O)O` [Val-Boro-Pro] as the compound, how does the hematopoiesis [2] read?
The hematopoiesis was “stimulated hematopoiesis”.

Which “degradation of GRF in plasma to GRF[3-44]” value [3] does the source give for `CC[C@H](C)[C@H](N)C(=O)N1CCC[C@H]1C(=O)N[C@H](C(=O)O)[C@@H](C)CC` [diprotin A] here?
The value was “prevented”.
